Experiment [1] addresses T1, Neutrophil elastase (Homo sapiens, UniProt P08246).
T1 sequence (P08246 whole entry): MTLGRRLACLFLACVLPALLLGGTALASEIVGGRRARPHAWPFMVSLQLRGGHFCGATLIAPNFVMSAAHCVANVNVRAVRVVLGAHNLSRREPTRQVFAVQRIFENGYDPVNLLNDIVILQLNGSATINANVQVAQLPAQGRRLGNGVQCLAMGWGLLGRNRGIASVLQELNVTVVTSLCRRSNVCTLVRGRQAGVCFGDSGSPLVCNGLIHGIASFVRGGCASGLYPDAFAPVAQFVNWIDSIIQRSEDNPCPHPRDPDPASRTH
Briefly: Compound was tested for inhibition of Elastase.

The target in experiment [2] is Hepatitis C virus serine protease, NS3/NS4A (Hepatitis C virus, UniProt D2K2A8+A3EZI9). Briefly: (§1) Inhibition of hepatitis c virus Non structural protein 3 protease/Non structural protein 4A protease. It is filed as protein-complex assay, Hepacivirus hominis.
Hepatitis C virus serine protease, NS3/NS4A (Hepatitis C virus, UniProt D2K2A8+A3EZI9), sequence (D2K2A8 whole entry): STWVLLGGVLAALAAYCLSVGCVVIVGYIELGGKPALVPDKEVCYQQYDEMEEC
Hepatitis C virus serine protease, NS3/NS4A (Hepatitis C virus, UniProt D2K2A8+A3EZI9), sequence (A3EZI9 whole entry): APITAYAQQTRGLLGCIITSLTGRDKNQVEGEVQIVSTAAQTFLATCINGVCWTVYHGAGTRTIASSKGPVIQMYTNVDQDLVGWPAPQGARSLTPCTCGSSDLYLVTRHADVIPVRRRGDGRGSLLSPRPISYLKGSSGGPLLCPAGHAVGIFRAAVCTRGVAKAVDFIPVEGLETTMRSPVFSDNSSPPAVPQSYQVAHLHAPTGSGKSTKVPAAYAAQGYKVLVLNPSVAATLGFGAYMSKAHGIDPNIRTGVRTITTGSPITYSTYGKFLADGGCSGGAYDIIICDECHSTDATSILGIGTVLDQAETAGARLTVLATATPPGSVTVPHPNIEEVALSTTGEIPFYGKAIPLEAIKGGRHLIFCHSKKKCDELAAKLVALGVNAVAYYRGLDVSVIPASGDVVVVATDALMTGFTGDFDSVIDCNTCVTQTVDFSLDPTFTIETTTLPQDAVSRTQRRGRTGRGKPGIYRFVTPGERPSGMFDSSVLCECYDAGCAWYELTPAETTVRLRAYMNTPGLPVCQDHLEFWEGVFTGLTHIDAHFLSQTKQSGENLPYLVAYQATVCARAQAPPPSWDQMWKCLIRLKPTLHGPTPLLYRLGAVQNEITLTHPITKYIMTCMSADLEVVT
Experiment [3] has as its target Trypsin (Homo sapiens, UniProt P07477+P07478+P35030). Briefly: Compound was tested for inhibition of trypsin. It is filed as protein assay.
The target in experiment [4] is Hepatitis C virus serine protease, NS3/NS4A (Hepatitis C virus, UniProt A3EZI9+D2K2A8). Described as §1. In kind it is protein-complex assay, Hepacivirus hominis.
Hepatitis C virus serine protease, NS3/NS4A (Hepatitis C virus, UniProt A3EZI9+D2K2A8), sequence (D2K2A8 whole entry): as the sequence (D2K2A8 whole entry) above
Hepatitis C virus serine protease, NS3/NS4A (Hepatitis C virus, UniProt A3EZI9+D2K2A8), sequence (A3EZI9 whole entry): as the sequence (A3EZI9 whole entry) above

*1 amine or outer side, *2 acyl side, *3 side chain or, on linkers, in order; H or OH if unused. Where a SMILES comes first, the peptide text is derived from it. [ ]: non-standard residue; d: D form. The star is where a group is joined. X1 = O=C(C(=O)[*:2])[C@H](CC(F)(F)F)N[*:1]; NH(1S-phenylpropyl) = CC[C@H](N*)c1ccccc1; NH(1R-phenylethyl) = C[C@@H](N*)c1ccccc1; NH(1S-phenylethyl) = C[C@H](N*)c1ccccc1; Phe(2-Me) = Cc1ccccc1C[C@H](N)C(=O)O; NleCONH2 = CCCC[C@H](N*)C(=O)C(N)=O; NH(4-OH-benzyl) = Oc1ccc(CN*)cc1; X3 = CCCC[C@@H](N*)C(=O)C(N)=O; X5 = CC[C@H](N*)c1ccc2ccccc2c1; X6 = C[C@H](N*)c1ccc2ccccc2c1; Suc = O=C(CCC(=O)[*:2])[*:1]; Tle = CC(C)(C)[C@H](N)C(=O)O; X4 = CC(C)[C@H](N*)c1ccccc1; NHBn = c1ccc(CN*)cc1; X2 = COc1cccc(CN*)c1

As a reminder, the IC50 is the concentration needed to halve the response being measured. A lower IC50 goes with greater potency.

With `CCCC[C@@H](NC(=O)[C@H](CC(C)C)NC(=O)[C@@H](NC(=O)[C@H](Cc1ccccc1C)NC(=O)[C@H](CCC(=O)O)NC(=O)[C@H](CC(=O)O)NC(=O)CCC(=O)O)C(C)(C)C)C(=O)C(N)=O` (Suc-DE[Phe(2-Me)][Tle]L-X3), in experiment [1], the midpoint of inhibition, the IC50, lay at 12000 nM.

`CC[C@H](NC(=O)C(=O)[C@H](CC(F)(F)F)NC(=O)[C@H](CC(C)C)NC(=O)[C@@H](NC(=O)[C@H](Cc1ccccc1C)NC(=O)[C@H](CCC(=O)O)NC(=O)[C@H](CC(=O)O)NC(=O)CCC(=O)O)C(C)(C)C)c1ccc2ccccc2c1` (Suc-DE[Phe(2-Me)][Tle]L[X1]-X5) registered an IC50 in experiment [2] of 8 nM.

In experiment [2], `Cc1ccccc1C[C@H](NC(=O)[C@H](CCC(=O)O)NC(=O)[C@H](CC(=O)O)NC(=O)CCC(=O)O)C(=O)N[C@H](C(=O)N[C@@H](CC(C)C)C(=O)N[C@@H](CC(F)(F)F)C(=O)C(=O)N[C@@H](C)c1ccc2ccccc2c1)C(C)(C)C` (Suc-DE[Phe(2-Me)][Tle]L[X1]-X6) yielded an IC50 of 4 nM.

`Cc1ccccc1C[C@H](NC(=O)[C@H](CCC(=O)O)NC(=O)[C@H](CC(=O)O)NC(=O)CCC(=O)O)C(=O)N[C@H](C(=O)N[C@@H](CC(C)C)C(=O)N[C@@H](CC(F)(F)F)C(=O)C(=O)N[C@H](c1ccccc1)C(C)C)C(C)(C)C` (Suc-DE[Phe(2-Me)][Tle]L[X1]-X4) showed an IC50 in experiment [2] of 7 nM. Compared with the last compound, the IC50 is about 1.8-fold higher.

Consider `CC[C@H](NC(=O)C(=O)[C@H](CC(F)(F)F)NC(=O)[C@H](CC(C)C)NC(=O)[C@@H](NC(=O)[C@H](Cc1ccccc1C)NC(=O)[C@H](CCC(=O)O)NC(=O)[C@H](CC(=O)O)NC(=O)CCC(=O)O)C(C)(C)C)c1ccccc1` (Suc-DE[Phe(2-Me)][Tle]L[X1]-{NH(1S-phenylpropyl)}), for which the IC50 in experiment [2] is 7 nM.

Turning to `COc1cccc(CNC(=O)C(=O)[C@H](CC(F)(F)F)NC(=O)[C@H](CC(C)C)NC(=O)[C@@H](NC(=O)[C@H](Cc2ccccc2C)NC(=O)[C@H](CCC(=O)O)NC(=O)[C@H](CC(=O)O)NC(=O)CCC(=O)O)C(C)(C)C)c1` (Suc-DE[Phe(2-Me)][Tle]L[X1]-X2), the IC50 in experiment [2] was determined as 6 nM.

Regarding `CCCC[C@H](NC(=O)[C@H](CC(C)C)NC(=O)[C@@H](NC(=O)[C@H](Cc1ccccc1C)NC(=O)[C@H](CCC(=O)O)NC(=O)[C@H](CC(=O)O)NC(=O)CCC(=O)O)C(C)(C)C)C(=O)C(N)=O` (Suc-DE[Phe(2-Me)][Tle]L-NleCONH2), the results for the IC50 in experiment [3] and in experiment [4] were more than 200000 nM and 11 nM, respectively.

Take `Cc1ccccc1C[C@H](NC(=O)[C@H](CCC(=O)O)NC(=O)[C@H](CC(=O)O)NC(=O)CCC(=O)O)C(=O)N[C@H](C(=O)N[C@@H](CC(C)C)C(=O)N[C@@H](CC(F)(F)F)C(=O)C(=O)N[C@@H](C)c1ccccc1)C(C)(C)C` (Suc-DE[Phe(2-Me)][Tle]L[X1]-{NH(1S-phenylethyl)}): it took 4 nM to reach half-maximal inhibition in experiment [2] (IC50).

On to `Cc1ccccc1C[C@H](NC(=O)[C@H](CCC(=O)O)NC(=O)[C@H](CC(=O)O)NC(=O)CCC(=O)O)C(=O)N[C@H](C(=O)N[C@@H](CC(C)C)C(=O)N[C@@H](CC(F)(F)F)C(=O)C(=O)N[C@H](C)c1ccccc1)C(C)(C)C` (Suc-DE[Phe(2-Me)][Tle]L[X1]-{NH(1R-phenylethyl)}), for which the IC50 in experiment [2] stood at 1100 nM.

As to `Cc1ccccc1C[C@H](NC(=O)[C@H](CCC(=O)O)NC(=O)[C@H](CC(=O)O)NC(=O)CCC(=O)O)C(=O)N[C@H](C(=O)N[C@@H](CC(C)C)C(=O)N[C@@H](CC(F)(F)F)C(=O)C(=O)NCc1ccc(O)cc1)C(C)(C)C` (Suc-DE[Phe(2-Me)][Tle]L[X1]-{NH(4-OH-benzyl)}), the IC50 in experiment [2] came out at 4 nM.

`Cc1ccccc1C[C@H](NC(=O)[C@H](CCC(=O)O)NC(=O)[C@H](CC(=O)O)NC(=O)CCC(=O)O)C(=O)N[C@H](C(=O)N[C@@H](CC(C)C)C(=O)N[C@@H](CC(F)(F)F)C(=O)C(=O)NCc1ccccc1)C(C)(C)C` (Suc-DE[Phe(2-Me)][Tle]L[X1]-NHBn): in experiment [2], the IC50 is 4 nM.

(Values after ChEMBL document CHEMBL1134166, “The identification of alpha-ketoamides as potent inhibitors of hepatitis C virus NS3-4A proteinase” (Bioorg Med Chem Lett, 2001).)
